The conditions of series [1]: cited from earlier work. The text has this: The new probe designed here was FRET-based, with a BODIPY fluorophore at the N-terminus, while the C-terminal Gln was replaced with a Lys residue functionalised with a quencher (Methyl Red, λmax 500 nm)[20].
In the next series the test system is human cathepsin D. The conditions noted are these: cited from earlier work. The text has this: Herein, we report the design and synthesis of a fluorogenic probe, based on a specific substrate for CatD, which provides an OFF→ON signal upon activation with good signal amplification. […] When choosing a substrate to build an optical probe to be used in cells and potentially in vivo, control of cross-reactivities is vital and it is important to design a specific substrate that is not ...

The subject of series [2] is CatD activity in human monocyte-derived macrophages (MDM). Nature of the series: Confocal imaging of CatD activity in monocyte-derived macrophages. The format is cell-based. Particulars: Pepstatin A 20 μM, S. pneumoniae MOI 10:1, CatD-P3 10 μM.
Description: Confocal fluorescence microscopy (λex 488, λem 512 nm) images of the detection of CatD activity in monocyte-derived macrophages. […] Mock infected macrophages (no bacteria) were used as a control (left panel). […] At 10 h the cells were washed, fixed in 2% paraformaldehyde and cell nuclei were counter-stained with DAPI (λex 405, λem 461 nm).
Human MDM were matured in 24-well Corning tissue culture plates over 14 days from Peripheral Blood Mononuclear cells obtained healthy volunteers by informed written consent, under ethical approval 21-EMREC-041. Following maturation, the MDM were removed from wells by treatment with Accutase (BioLegend) and re-seeded onto iBidi 8-well chamber slides. […] Following fixation, cells were washed again with 3 × PBS, with DAPI (0.1 µg/mL) added in the 2nd PBS wash for 10 min.
In these experiments, macrophages were incubated for 6 h in the presence or absence (Mock)
(20 μM) was added aoer 4 h. At 10 h the cells were washed, ﬁxed in 2% paraformaldehyde and cell nuclei
were counter-stained with DAPI (λex 405, λem 461 nm).
On the set-up of series [3]: method as in PMID 29876538. Particulars: acids such as TFA or HCl; cited from earlier work. The text has this:
The Methyl Red (MR) quencher was incorporated by coupling Fmoc-Lys(MR)-OH[20] onto a Rink-amide functionalised polystyrene resin (0.7 mmol/g), followed by the substrate sequence, using DIC and Oxyma as the coupling combination. The use of Fmoc-Lys(MR)-OH as a building block avoided the need for orthogonal deprotection on the resin[27],[28]. A bis-ethylene glycol spacer was introduced as the last amino acid before the fluorophore to increase hydrophilicity and promote aqueous solubility of the probe. The BODIPY (1,3,5,7-tetramethyl-8-phenyl-4,4-difluoroboradiazaindacene) fluorophore chosen as p ...

These results are taken from PMC10622513, “A fluorogenic, peptide-based probe for the detection of Cathepsin D in macrophages” (Communications Chemistry, 2023).

One may read the Km as the concentration of substrate that gives half-maximal velocity. One may read the kcat as the maximal rate divided by the concentration of active sites.

“Also recorded” adds a separate entry of the source.

`CC1=CC(C)=[N+]2C1=C(c1ccc(C(=O)ON3C(=O)CCC3=O)cc1)c1c(C)cc(C)n1[B-]2(F)F` [compound 2]: in series [1], the “fluorescence quantum yield Φ” value is 0.6 and the “pH sensitivity of fluorescence” value is listed as “pH insensitive”.
For “Ala-Ile-Ala-Phe↑Phe-Ser-Arg-Gln [kallistatin, natural CatD substrate kallistatin, from which Pimenta et al. derived the substrate]”, in the series with human cathepsin D, the Km was 0.27 µM and the turnover number (kcat) is 16.25 s⁻¹.
As for Pepstatin A, in series [2], the “effect of Pepstatin A on CatD-P3 fluorescence in infected macrophages” value is recorded as “a decrease in the fluorescence signal; also recorded: prevented CatD-P3 activation resulting in reduced/no green fluorescence; also recorded: marked decrease in fluorescent signal”.
Consider `CC1=CC(C)=[N+]2C1=C(c1ccccc1)c1c(C)cc(C)n1[B-]2(F)F` [BODIPY, 1,3,5,7-tetramethyl-8-phenyl-4,4-difluoroboradiazaindacene], for which the stability to acids result in series [3] is “not stable to acids”.
